According to US20230381270A1, “PHARMACEUTICAL COMBINATIONS FOR TREATING CANCER” (POLYPHOR AG, priority 2017, published 2023):
Like-named read-outs stand apart in the source and are kept apart here.

What was measured:
metastatic breast cancer = conditions: cited from earlier work
human CXCR4 receptor = human CXCR4 receptor (Homo sapiens, UniProt P61073); assay: In vitro receptor binding studies
From the text: (§1) Cyclo(-Tyr-His-Ala-Cys-Ser-Ala-^DPro-Dab-Arg-Tyr-Cys-Tyr-Gln-Lys-^DPro-Pro-) having a disulfide bond between Cys4 and Cys11 is also referred as POL6326 herein or balixafortide. POL6326 is a cyclic synthetic peptide consisting of 16 amino acids and an antagonist of the highly conserved chemokine receptor CXCR4 and is being developed as an IV treatment in combination with chemotherapy in patients with leukemias (autologous transplantation).

[1] = tested on: other potential target receptors; assay: In vitro receptor binding studies, other receptors
From the text: as §1

[2] = Phase I trial of eribulin + POL6326: safety and tolerability (adverse events); format: in vivo, human; conditions: balixafortide-related; most frequent during Day 1, Cycle 1
From the text: This open-label, single-arm, non-randomised Phase I, dose escalation trial enrolled HER2-negative (any oestrogen or progesterone receptor status) females age […] years with histologically confirmed invasive breast cancer, stage IV disease (American Joint Committee on Cancer criteria), evidence of tumour cell CXCR4 expression by immunohistochemistry on tumour tissue (archival primary tumour, metastatic tissue, or from a fresh biopsy), and at least one measurable lesion according to Response Evaluation Criteria in Solid Tumours (RECIST) 1.1 criteria. Patients had previously received […] chemotherapy regimens for metastatic breast cancer (MBC). Patients with hormone receptor positive status must have failed at least one endocrine therapy or be considered unsuitable for endocrine therapy. Eligibility criteria also included an Eastern Cooperative Oncology Group performance status of 0 or 1. This phase I study investigates the combination of eribulin with POL6326 in relapsed metastatic breast cancer. The primary objectives are the safety, tolerability, and pharmacokinetics (PK) of this combination therapy, as well as the maximum tolerated dose (MTD) and recommended phase 2 dose (RP2D) of POL6326 when added to eribulin. Efficacy, as measured by tumor response, was additionally assessed.
Treatment cycles of 21 days each. […]

advanced cancer = conditions: monotherapy (Galsky 2014); cited from earlier work
[3] = Phase II study, eribulin alone (Cortes et al 2010)
[4] = Phase II study, eribulin alone (Vandat et al 2009)
[5] = relapsed mBC patients in 3rd line and beyond, published data

human CXCR4 receptor, sequence (P61073 whole entry): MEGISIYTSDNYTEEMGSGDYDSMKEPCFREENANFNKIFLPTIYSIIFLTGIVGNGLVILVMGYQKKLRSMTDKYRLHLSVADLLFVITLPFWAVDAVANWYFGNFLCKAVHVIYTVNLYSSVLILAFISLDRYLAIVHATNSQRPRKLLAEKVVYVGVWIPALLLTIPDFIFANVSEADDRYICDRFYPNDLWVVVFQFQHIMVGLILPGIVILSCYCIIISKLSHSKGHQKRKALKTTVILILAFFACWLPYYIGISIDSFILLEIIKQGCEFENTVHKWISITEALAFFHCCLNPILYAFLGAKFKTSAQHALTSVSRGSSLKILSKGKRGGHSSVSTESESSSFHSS

**Q.** For C=C1C[C@@H]2CC[C@@]34C[C@H]5O[C@H]6[C@@H](O3)[C@H]3O[C@H](CC[C@@H]3O[C@H]6[C@H]5O4)CC(=O)C[C@@H]3[C@@H](OC)[C@@H](C[C@H](O)CN)O[C@H]3C[C@H]3O[C@@H](CC[C@@H]1O2)C[C@@H](C)C3=C [eribulin, 2-(3-amino-2-hydroxypropyl)hexacosahydro-3-methoxy-26-methyl-20,27-bis(methylene)11,15-18,21-24,28-triepoxy-7,9-ethano-12,15-methano-9H,15H-furo (3,2-i)furo(2′,3′-5,6)pyrano (4,3-b)(1,4)dioxacyclopentacosin-5-(4H)-one], which CBR (metastatic breast cancer; [3]) is on record?
**A.** The CBR was 17.1%.

**Q.** What about the ORR (metastatic breast cancer; [3]) of the same compound?
**A.** The ORR was 9%.

**Q.** What about the CBR (metastatic breast cancer; [4]) of the same compound?
**A.** Its CBR is 17.2%.

**Q.** And the ORR (metastatic breast cancer; [4])?
**A.** The ORR was 11.5%.

**Q.** What about the mPFS (metastatic breast cancer; eribulin alone, published trials recruiting similar patients) of the same compound?
**A.** Its mPFS is 2.6-4.1 months.

**Q.** And the “One year OS” value (metastatic breast cancer; eribulin alone, reported)?
**A.** The value was 53.9%.

**Q.** And the ORR (metastatic breast cancer; randomised Phase III trial (EMBRACE, Cortes 2011))?
**A.** The ORR was 12%.

**Q.** And the ORR (metastatic breast cancer; randomised Phase III trial (Kaufman 2015))?
**A.** The ORR was 11%.

**Q.** And the “overall survival (OS)” value (metastatic breast cancer; [5])?
**A.** Its value is 13.1 months.

**Q.** And the “progression-free survival (PFS)” value (metastatic breast cancer; [5])?
**A.** The value was 3.7 months.

**Q.** With “Cyclo(-Tyr-His-Ala-Cys-Ser-Ala-^DPro-Dab-Arg-Tyr-Cys-Tyr-Gln-Lys-^DPro-Pro-) having a disulfide bond between Cys4 and Cys11 [POL6326]” as the compound, how does the “affinity for the human CXCR4 receptor” value (human CXCR4 receptor) read?
**A.** The value was “significant affinity”.

**Q.** What about the “binding to other potential target receptors” value [1] of the same compound?
**A.** Its value is “general lack of significant binding”.

**Q.** What about the “infusion-related reactions (IRRs)” value [2] of the same compound?
**A.** The value was “the majority were low grade”.

**Q.** With LY2510924 as the compound, how does the DLT (advanced cancer) read?
**A.** The DLT was “abnormal neutrophil count”.
